Read-outs that look alike come from different tables or passages of the source.
Columns and labels:
Assay type in all cases: cell-based
ATR kinase = target: T1, ATR kinase (Homo sapiens, UniProt Q13535); experiment: Assay b) ATR cellular potency (pChk1 Ser345 in HT29 cells after 4NQO); conditions: HT29 cells, 4NQO, pChk1 Ser345; may be geometric mean of several tests; read-out: Assay b) ATR Cell IC50
T1 construct: measuring a decrease in phosphorylation of Chk1 (Ser 345) in HT29 cells; endogenous in cells; host or cells: HT29 cells (ECACC #85061109)
Source text: Assay b): ATR Cellular Potency
ATR is a PI 3-kinase-related kinase which phosphorylates multiple substrates on serine or threonine residues in response to DNA damage during or replication blocks. Chk1, a downstream protein kinase of ATR, plays a key role in DNA damage checkpoint control. Activation of Chk1 involves phosphorylation of Ser317 and Ser345 (the latter regarded as the preferential target for phosphorylation/activation by ATR).
The following morning compound of Formula (I) in 100% DMSO were added to assay plates by acoustic dispensing. After 1 h incubation at 37° C. and 5% CO2. 40 nl of 3 mM 4NQO in 100% DMSO was added to all wells by acoustic dispensing, except minimum control wells which were left untreated with 4NQO to generate a null response control. Plates were returned to the incubator for a further 1 h. […] Then 20 μl of 0.1% Triton X100 in PBS was added and incubated for 10 minutes at r.t., to permeabalise cells. Then the plates were washed once with 50 μl/well PBS, using a Biotek EL405 plate washer.
After 2 h incubation at r.t., the plates were washed three times with 50 μl/well PBS, using a Biotek EL405 plate washer, and plates were then sealed with black plate seals until read. Plates were read using an ArrayScan VTI instrument, using an XF53 filter with 10× objective.

ATM kinase = target: T2, ATM kinase (Homo sapiens, UniProt Q13315); experiment: Assay a) ATM cellular potency (pATM Ser1981 in X-ray irradiated HT29 cells); conditions: HT29 cells, 1 h compound, X-ray ~600 cGy, pATM Ser1981; may be geometric mean of several tests; read-out: Assay a) ATM Cell IC50
T2 construct: endogenous in cells; host or cells: HT29 cells (ECACC #85061109)
T2 sequence (Q13315 whole entry): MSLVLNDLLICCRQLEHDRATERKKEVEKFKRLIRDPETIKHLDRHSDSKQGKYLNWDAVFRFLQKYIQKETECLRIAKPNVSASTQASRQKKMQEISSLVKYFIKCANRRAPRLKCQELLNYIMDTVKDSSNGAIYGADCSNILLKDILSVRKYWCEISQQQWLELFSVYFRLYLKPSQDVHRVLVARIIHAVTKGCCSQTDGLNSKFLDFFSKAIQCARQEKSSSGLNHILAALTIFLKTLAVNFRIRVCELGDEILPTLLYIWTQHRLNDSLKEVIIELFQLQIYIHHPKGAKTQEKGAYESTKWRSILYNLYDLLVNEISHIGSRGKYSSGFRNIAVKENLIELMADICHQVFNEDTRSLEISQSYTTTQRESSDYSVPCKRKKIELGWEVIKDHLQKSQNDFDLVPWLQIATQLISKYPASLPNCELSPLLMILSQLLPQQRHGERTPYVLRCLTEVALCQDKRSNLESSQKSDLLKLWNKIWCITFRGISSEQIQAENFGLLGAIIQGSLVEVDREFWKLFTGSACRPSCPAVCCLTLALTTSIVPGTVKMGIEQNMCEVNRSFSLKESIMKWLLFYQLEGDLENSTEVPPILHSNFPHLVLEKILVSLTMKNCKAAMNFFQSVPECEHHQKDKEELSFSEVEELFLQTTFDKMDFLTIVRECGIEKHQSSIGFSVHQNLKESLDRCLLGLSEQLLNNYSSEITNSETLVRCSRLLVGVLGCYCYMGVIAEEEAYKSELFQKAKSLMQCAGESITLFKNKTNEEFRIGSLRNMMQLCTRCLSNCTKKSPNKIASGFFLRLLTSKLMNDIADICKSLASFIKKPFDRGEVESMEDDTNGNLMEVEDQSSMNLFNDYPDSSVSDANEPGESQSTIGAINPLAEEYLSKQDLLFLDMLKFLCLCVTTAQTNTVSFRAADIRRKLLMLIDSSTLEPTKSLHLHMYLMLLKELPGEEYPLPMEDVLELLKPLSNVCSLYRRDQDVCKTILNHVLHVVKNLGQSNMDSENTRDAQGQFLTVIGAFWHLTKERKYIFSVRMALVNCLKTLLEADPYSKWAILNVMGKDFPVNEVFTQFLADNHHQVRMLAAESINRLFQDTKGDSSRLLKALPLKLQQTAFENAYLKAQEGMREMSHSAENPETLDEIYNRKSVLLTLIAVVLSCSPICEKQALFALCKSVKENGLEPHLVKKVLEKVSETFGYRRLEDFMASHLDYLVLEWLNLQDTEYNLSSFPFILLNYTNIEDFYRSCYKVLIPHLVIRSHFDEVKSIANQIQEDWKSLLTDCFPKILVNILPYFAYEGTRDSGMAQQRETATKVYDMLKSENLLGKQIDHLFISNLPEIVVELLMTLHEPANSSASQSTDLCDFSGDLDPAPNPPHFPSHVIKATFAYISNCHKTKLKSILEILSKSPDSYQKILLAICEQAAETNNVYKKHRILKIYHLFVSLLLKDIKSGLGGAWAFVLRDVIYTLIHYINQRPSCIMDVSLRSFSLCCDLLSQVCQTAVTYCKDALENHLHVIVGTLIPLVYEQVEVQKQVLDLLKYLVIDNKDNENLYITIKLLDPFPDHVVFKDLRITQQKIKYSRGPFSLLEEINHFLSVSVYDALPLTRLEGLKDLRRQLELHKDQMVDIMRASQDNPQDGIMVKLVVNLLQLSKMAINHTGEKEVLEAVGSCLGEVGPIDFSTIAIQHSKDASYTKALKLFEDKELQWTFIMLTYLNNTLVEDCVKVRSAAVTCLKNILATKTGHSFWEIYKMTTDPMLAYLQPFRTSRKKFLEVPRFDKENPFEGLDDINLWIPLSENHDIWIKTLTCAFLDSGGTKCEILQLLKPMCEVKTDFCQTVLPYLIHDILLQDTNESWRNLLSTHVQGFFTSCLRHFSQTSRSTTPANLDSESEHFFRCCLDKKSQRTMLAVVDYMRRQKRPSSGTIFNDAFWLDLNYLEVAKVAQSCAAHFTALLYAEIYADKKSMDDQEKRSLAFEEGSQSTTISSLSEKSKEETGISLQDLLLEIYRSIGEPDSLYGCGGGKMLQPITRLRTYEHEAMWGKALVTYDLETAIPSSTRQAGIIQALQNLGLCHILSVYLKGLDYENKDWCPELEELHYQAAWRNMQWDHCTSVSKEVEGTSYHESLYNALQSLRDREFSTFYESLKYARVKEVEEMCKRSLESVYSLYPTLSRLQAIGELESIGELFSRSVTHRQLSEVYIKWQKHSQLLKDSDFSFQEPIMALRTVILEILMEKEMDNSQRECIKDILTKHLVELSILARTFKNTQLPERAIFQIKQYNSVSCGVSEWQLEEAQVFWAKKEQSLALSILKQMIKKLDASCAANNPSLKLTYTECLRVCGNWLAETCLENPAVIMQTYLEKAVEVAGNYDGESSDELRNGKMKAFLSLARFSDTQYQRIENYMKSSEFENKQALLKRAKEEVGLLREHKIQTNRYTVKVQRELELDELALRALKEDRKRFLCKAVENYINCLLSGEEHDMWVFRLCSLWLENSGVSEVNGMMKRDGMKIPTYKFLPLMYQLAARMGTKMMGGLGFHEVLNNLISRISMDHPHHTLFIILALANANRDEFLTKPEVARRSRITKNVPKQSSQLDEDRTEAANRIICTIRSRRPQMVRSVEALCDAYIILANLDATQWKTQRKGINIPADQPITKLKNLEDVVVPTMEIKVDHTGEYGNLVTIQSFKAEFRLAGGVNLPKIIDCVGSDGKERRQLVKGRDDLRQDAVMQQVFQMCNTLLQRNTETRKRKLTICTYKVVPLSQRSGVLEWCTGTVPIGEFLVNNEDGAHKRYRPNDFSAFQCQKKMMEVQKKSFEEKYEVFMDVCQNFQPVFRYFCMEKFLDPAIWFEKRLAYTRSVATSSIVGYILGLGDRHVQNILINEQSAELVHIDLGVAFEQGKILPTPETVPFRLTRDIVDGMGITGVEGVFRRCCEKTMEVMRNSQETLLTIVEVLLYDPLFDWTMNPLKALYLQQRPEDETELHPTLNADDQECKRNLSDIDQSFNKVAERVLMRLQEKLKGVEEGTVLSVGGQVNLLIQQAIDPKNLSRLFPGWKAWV
Description: The following assays were used to measure the effects of the compounds of the present invention: a) ATM cellular potency assay; b) PI3K cellular potency assay; c) mTOR cellular potency assay; d) ATR cellular potency assay. During the description of the assays, generally: • i. […] IC50 values were calculated using a smart fitting model in Genedata. […] Assay a): ATM Cellular Potency Rationale:
Most ATM molecules in the cell are rapidly phosphorylated on this site after doses of radiation as low as 0.5 Gy, and binding of a phosphospecific antibody is detectable after the introduction of only a few DNA double-strand breaks in the cell.
The rationale of the pATM assay is to identify inhibitors of ATM in cells. HT29 cells are incubated with test compounds for 1 hr prior to X-ray-irradiation. 1 h later the cells are fixed and stained for pATM (Ser1981). The fluorescence is read on the arrayscan imaging platform.
The following morning compounds of Formula (I) in 100% DMSO were added to assay plates by acoustic dispensing. After 1 h incubation at 37° C. and 5% CO2, plates (up to 6 at a time) were irradiated using the X-RAD 320 instrument (PXi) with equivalent to ˜600 cGy. Plates were returned to the incubator for a further 1 h. […] Then 20 μl of 0.1% Triton X100 in PBS was added and incubated for 20 minutes at r.t., to permeabalise cells. Then the plates were washed once with 50 μl/well PBS, using a Biotek EL405 plate washer.
After 1 h incubation at r.t., the plates were washed three times with 50 μl/well PBS, using a Biotek EL405 plate washer, and plates were sealed and kept in PBS at 4° C. until read. Plates were read using an ArrayScan VTI instrument, using an XF53 filter with 10× objective.

PI3K-α = PI3K-α (Homo sapiens, UniProt P42336); experiment: Assay c) PI3K cellular potency (phospho-Akt T308 ELISA in BT474 cells); conditions: BT474 cells, 2 h, phospho-AKT T308; may be geometric mean of several tests; read-out: Assay c) PI3Kα Cell IC50
PI3K-α, sequence (P42336 whole entry): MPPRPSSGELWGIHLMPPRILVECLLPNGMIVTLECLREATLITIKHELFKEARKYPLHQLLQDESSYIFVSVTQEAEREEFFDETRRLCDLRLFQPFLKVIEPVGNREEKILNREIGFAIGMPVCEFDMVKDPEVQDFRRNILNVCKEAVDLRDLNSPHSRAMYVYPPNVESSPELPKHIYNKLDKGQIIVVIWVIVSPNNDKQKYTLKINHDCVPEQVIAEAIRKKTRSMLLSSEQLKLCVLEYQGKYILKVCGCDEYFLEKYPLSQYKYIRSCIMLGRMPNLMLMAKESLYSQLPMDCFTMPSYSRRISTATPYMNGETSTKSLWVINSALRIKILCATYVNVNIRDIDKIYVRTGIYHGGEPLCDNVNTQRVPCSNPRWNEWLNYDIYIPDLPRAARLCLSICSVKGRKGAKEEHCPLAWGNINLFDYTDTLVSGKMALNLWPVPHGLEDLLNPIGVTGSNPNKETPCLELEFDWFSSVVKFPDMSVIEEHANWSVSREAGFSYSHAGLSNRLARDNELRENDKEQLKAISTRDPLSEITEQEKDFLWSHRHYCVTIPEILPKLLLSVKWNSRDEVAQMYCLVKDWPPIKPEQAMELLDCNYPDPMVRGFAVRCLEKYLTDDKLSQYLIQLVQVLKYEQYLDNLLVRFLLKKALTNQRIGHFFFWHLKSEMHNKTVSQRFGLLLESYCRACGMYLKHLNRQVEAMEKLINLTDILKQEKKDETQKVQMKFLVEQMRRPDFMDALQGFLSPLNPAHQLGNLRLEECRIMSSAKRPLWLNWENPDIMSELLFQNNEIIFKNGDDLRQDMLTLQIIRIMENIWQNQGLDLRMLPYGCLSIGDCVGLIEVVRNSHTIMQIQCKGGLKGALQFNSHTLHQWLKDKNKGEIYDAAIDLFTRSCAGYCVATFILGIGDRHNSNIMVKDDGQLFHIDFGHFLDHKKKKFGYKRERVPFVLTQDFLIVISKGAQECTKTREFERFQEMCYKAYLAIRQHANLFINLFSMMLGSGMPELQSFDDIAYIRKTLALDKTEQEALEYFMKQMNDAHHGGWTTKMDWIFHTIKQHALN
Source text: Assay c): PI3K Cellular Potency
This assay was used to measure PI3K-α inhibition in cells. PDK1 was identified as the upstream activation loop kinase of protein kinase B (Akt 1), which is essential for the activation of PKB. Activation of the lipid kinase phosphoinositide 3 kinase (PI3K) is critical for the activation of PKB by PDK1.
Following ligand stimulation of receptor tyrosine kinases, PI3K is activated, which converts PIP2 to PIP3, which is bound by the PH domain of PDK1 resulting in recruitment of PDK1 to the plasma membrane where it phosphorylates AKT at Thr308 in the activation loop.
The aim of this cell-based mode of action assay is to identify compounds that inhibit PDK activity or recruitment of PDK1 to membrane by inhibiting PI3K activity. Phosphorylation of phospho-Akt (T308) in BT474c cells following treatment with compounds for 2 h is a direct measure of PDK1 and indirect measure of PI3K activity.
BT474 cells (human breast ductal carcinoma, ATCC HTB-20) were seeded into black 384 well plates (Costar, #3712) at a density of 5600 cells/well in DMEM containing 10% FBS and 1% glutamine and allowed to adhere overnight.
The following morning compounds in 100% DMSO were added to assay plates by acoustic dispensing. After a 2 h incubation at 37° C. and 5% CO2, the medium was aspirated and the cells were lysed with a buffer containing 25 mM Tris, 3 mM EDTA, 3 mM EGTA, 50 mM sodium fluoride, 2 mM Sodium orthovanadate, 0.27M sucrose, 10 mM β-glycerophosphate, 5 mM sodium pyrophosphate, 0.5% Triton X-100 and complete protease inhibitor cocktail tablets (Roche #04 693 116 001, used 1 tab per 50 ml lysis buffer).
After 20 minutes, the cell lysates were transferred into ELISA plates (Greiner #781077) which had been pre-coated with an anti total-AKT antibody in PBS buffer and non-specific binding was blocked with 1% BSA in PBS containing 0.05% Tween 20. Plates were incubated over night at 4° C. The next day the plates were washed with PBS buffer containing 0.05% Tween 20 and further incubated with a mouse monoclonal anti-phospho AKT T308 for 2 h. Plates were washed again as above before addition of a horse anti-mouse-HRP conjugated secondary antibody. Following a 2 h incubation at r.t., plates were washed and QuantaBlu substrate working solution (Thermo Scientific #15169, prepared according to provider's instructions) was added to each well. The developed fluorescent product was stopped after 60 minutes by addition of Stop solution to the wells. Plates were read using a Tecan Safire plate reader using 325 nm excitation and 420 nm emission wavelengths respectively. Except where specified, reagents contained in the Path Scan Phospho AKT (Thr308) sandwich ELISA kit from Cell Signalling (#7144) were used in this ELISA assay.

mTOR = target: T3, mTOR (Homo sapiens, UniProt P42345); experiment: Assay d) mTOR cellular potency (phospho-AKT Ser473 in MDA-MB-468 cells)
T3 construct: endogenous in cells; host or cells: MDA-MB-468 cells (ATCC HTB 132)
Description: Assay d): mTOR Cellular Potency
This assay was used to measure mTOR inhibition in cells. The aim of the phospho-AKT cell based mechanism of action assay using the Acumen Explorer is to identify inhibitors of either PI3Kα or mTOR-Rictor (Rapamycin insensitive companion of mTOR). This is measured by any decrease in the phosphorylation of the Akt protein at Ser473 (AKT lies downstream of PI3Kα in the signal transduction pathway) in the MDA-MB-468 cells following treatment with compound. Method Details:
MDA-MB-468 cells (human breast adenocarcinoma #ATCC HTB 132) were seeded at 1500 cells/well in 40 μl of DMEM containing 10% FBS and 1% glutamine into Greiner 384 well black flat-bottomed plates. Cell plates were incubated for 18 h in a 37° C. incubator before dosing with compounds of Formula (I) in 100% DMSO using acoustic dispensing. Compounds were dosed in a 12 point concentration range into a randomised plate map. Control wells were generated either by dosing of 100% DMSO (max signal) or addition of a reference compound (a PI3K-β inhibitor) that completely eliminated the pAKT signal (min control). Compounds were then tested by one of two assay protocols A or B:
Plates were incubated at 37° C. for 2 h; cells were then fixed by the addition of 10 μl of a 3.7% formaldehyde solution. After 30 minutes the plates were washed with PBS using a Tecan PW384 plate washer. Wells were blocked and cells permeabilised with the addition of 40 μl of PBS containing 0.5% Tween20 and 1% Marvel™ (dried milk powder) and incubated for 60 minutes at r.t. The plates were washed with PBS containing 0.5% (v/v) Tween20 and 20 μl rabbit anti-phospho AKT Ser473 (Cell Signalling Technologies, #3787) in same PBS-Tween+1% Marvel™ was added and incubated overnight at 4° C.
Plates were washed 3 times with PBS+0.05% Tween 20 using a Tecan PW384. 20 μl of secondary antibody Alexa Fluor 488 anti-Rabbit (Molecular Probes, #A11008) diluted in PBS+0.05% Tween20 containing 1% Marvel™ was added to each well and incubated for 1 h at r.t. Plates were washed three times as before then 20 μl PBS added to each well and plates sealed with a black plate sealer.
The plates were read on an Acumen plate reader as soon as possible, measuring green fluorescence after excitation with 488 nm laser. Using this system IC50 values were generated and quality of plates was determined by control wells. Reference compounds were run each time to monitor assay performance.
The cell plates were then incubated for 2 h at 37° C. before being fixed by the addition of 20 μl 3.7% formaldehyde in PBS/A (1.2% final concentration), followed by a 30 minute room temperature incubation, and then a 2× wash with 150 μl PBS/A using a BioTek ELx406 platewasher. Cells were permeabilised and blocked with 20 μl of assay buffer (0.1% Triton X-100 in PBS/A+1% BSA) for 1 h at room temperature, and then washed 1× with 50 μl PBS/A. Primary phospho-AKT (Ser473) D9E XP® rabbit monoclonal antibody (#4060, Cell Signaling Technology) was diluted 1:200 in assay buffer, 20 μl added per well, and plates were incubated at 4° C. overnight. Cell plates were washed 3× with 200 μl PBS/T, then 20 μl 1:750 dilution in assay buffer of Alexa Fluor® 488 goat anti-rabbit IgG secondary antibody (#A11008, Molecular Probes, Life Technologies), with a 1:5000 dilution of Hoechst 33342, was added per well. Following a 1 h incubation at room temperature, plates were washed 3× with 200 μl PBS/T, and 40 μl PBS w/o Ca, Mg and Na Bicarb (Gibco #14190-094) was added per well.
Stained cell plates were covered with black seals, and then read on the Cell Insight imaging platform (Thermo Scientific), with a 10× objective. The primary channel (Hoechst blue fluorescence 405 nM, BGRFR_386_23) was used to Autofocus and to count number of events (this provided information about cytotoxicity of the compounds tested). The secondary channel (Green 488 nM, BGRFR_485_20) measured pAKT staining. […]

[1] = pAKT Ser473, Protocol B (*); read-out: Assay d) mTOR Cell IC50

Cn1c(=O)n(C2CC2)c2c3cc(-c4cnc5[nH]ccc5c4)ccc3ncc21 [CN102399218A Compound 62, reference compound]
IC50 (ATR kinase): 0.0553 µM | IC50 (ATM kinase): 0.135 µM

CC(C)n1c(=O)n(C)c2cnc3cc(F)c(-c4ccc(OCCCN(C)C)nc4)cc3c21 [Example 1, 8-[6-[3-(Dimethylamino)propoxy]-3-pyridyl]-7-fluoro-1-isopropyl-3-methyl-imidazo[4,5-c]quinolin-2-one]
IC50 (ATR kinase): > 30 µM | IC50 (PI3K-α): 13.4 µM | IC50 (mTOR; [1]): > 30 µM

CC(C)n1c(=O)n(C)c2cnc3ccc(-c4ccc(OCCCN5CCCCC5)nc4)cc3c21 [Example 5, 1-Isopropyl-3-methyl-8-[6-[3-(l-piperidyl)propoxy]-3-pyridyl]imidazo[4,5-c]quinolin-2-one]
IC50 (PI3K-α): 1.24 µM | IC50 (mTOR; [1]): 6.76 µM

CC(C)n1c(=O)n(C)c2cnc3cc(F)c(-c4ccc(OCCCN(C)C)nc4F)cc3c21 [Example 11, 8-[6-[3-(dimethylamino)propoxy]-2-fluoro-3-pyridyl]-7-fluoro-1-isopropyl-3-methyl-imidazo[4,5-c]quinolin-2-one]
IC50 (ATR kinase): > 30 µM | IC50 (ATM kinase): 0.00228 µM | IC50 (mTOR; pAKT Ser473, Protocol A (§); read-out: Assay d) mTOR Cell IC50): 23.6 µM

CC(C)n1c(=O)n(C)c2cnc3ccc(-c4ccc(OCCCN5CCC5)nc4F)cc3c21 [Example 15, 8-[6-[3-(azetidin-1-yl)propoxy]-2-fluoro-3-pyridyl]-1-isopropyl-3-methyl-imidazo[4,5-c]quinolin-2-one]
IC50 (ATR kinase): > 30 µM | IC50 (ATM kinase): 0.00214 µM | IC50 (mTOR; [1]): > 0.3 µM

CC(C)n1c(=O)[nH]c2cnc3cc(F)c(-c4ccc(OCCCN(C)C)nc4)cc3c21 [Example 17, 8-[6-[3-(Dimethylamino)propoxy]-3-pyridyl]-7-fluoro-1-isopropyl-3H-imidazo[4,5-c]quinolin-2-one]
IC50 (ATR kinase): > 30 µM | IC50 (ATM kinase): 0.00461 µM | IC50 (mTOR; [1]): > 10 µM

Source: US10457679B2, “Imidazo[4,5-c]quinolin-2-one compounds and their use in treating cancer” (AstraZeneca AB, priority 2015, dated 2019)
